Test results: patent US20050090453A1, “Methods of modulating IL-6” (SOLBEC PHARMACEUTICALS CO., LTD., priority 2003, published 2005)
Converted amounts (≈) assume the structure as drawn.

Legend:
[1] = system: five human malignant mesothelioma cell lines (Ju77, Lo68, No36, One58, Sty51); experiment: MTT assay, five mesothelioma cell lines; format: cell-based; details: range over five mesothelioma cell lines, 72 hours, read-out: IC50 (concentration required to reduce cell viability by 50%)
Text: (§1) A panel of five human malignant mesothelioma cell lines, established from the pleural fluid of patients with the disease. These cell lines, designed Ju77, Lo68, No36, One58 and Sty51 have been previously described (1). None of the patients from whom the cell lines were derived had been exposed to chemotherapeutic agents. Two cell lines were purchased from ATCC (Rockville, Md.) for use as controls: HT29—a human colon adenocarcinoma (ATCC HTB38) and A549—a human lung adenocarcinoma (ATCC CCL185). These cell lines are representative of tumours that are generally drug resistant but have shown some responses to newer chemotherapy agents.
(§2) Cells were maintained in RPMI-1640 containing 5% fetal calf serum (Life Technologies Inc., Melbourne), 5×10^−5 M 2-mercaptoethanol, 20 mM HEPES buffer, 100 IU benzylpenicillin/ml (CSL, Perth) and 50 μg gentamicin/ml (David Bull Laboratories, Melbourne), in water saturated air containing 5% CO2 at 37° C. This growth medium will henceforth be called RF-5. All cells were checked at 3 monthly intervals for Mycoplasma and remained negative to testing.
(§3) Drug sensitivities for each cell line were determined by use of the MTT (Sigma-Aldrich, NSW) assay modified from the method described by Mossman (2). […] Optical densities were determined using a SpectraMax 250 plate reader (Molecular Devices) at 570 nm. […]

[2] = system: A549 human lung adenocarcinoma; experiment: MTT assay, A549; format: cell-based; details: 72 hours, read-out: IC50 (concentration required to reduce cell viability by 50%)
Text: as §1, §2, §3

[3] = system: HT29 human colon adenocarcinoma; experiment: MTT assay, HT29; format: cell-based; details: HT-29, 72 hours, read-out: IC50 (concentration required to reduce cell viability by 50%)
Text: as §1, §2, §3

[4] = system: mesothelioma and control cells; experiment: MTT assay, drug toxicity in mesothelioma and control cells; format: cell-based, human; details: all cell lines
Text: as §1, §2, §3

IL-6 [5] = experiment: IL-6 ELISA of media from treated mesothelioma and control cells; format: cell-based, human; details: for surge in IL-6 production: as the concentration of drug approached its IC50 value
Description: The IL-6 assay was performed using a human IL-6 ELISA kit (eBioscience, USA) according to the manufacturers protocol. Briefly ninety six well plates were incubated at room temperature overnight with 100 μL per well of monoclonal antihuman IL-6 antibody in coating buffer (0.1M Na2CO3/NaHCO3, pH 9.6). The plate was washed five times with PBS and then 200 μL of blocking buffer added to each well and incubated for one hour at room temperature. The plate was then washed five times in PBS with 0.005% Tween 20 (Sigma-Aldrich, NSW). 100 μL of each sample to be assayed was added to each well and also IL-6 standard solutions ranging from 0.6-400 pg/ml were used to generate a standard curve.
After a one hour incubation, the plate was washed as above and 100 μL of biotinylated-IL-6 antibody solution added for a further hour. Following further washes, 100 μL of streptavidin-HRP conjugate solution was added for 30 minutes and the plates washed. 100 μL of ABTS solution was added and following incubation for 30 minutes at 37° C., the plate was read at 405 nm on a SpectraMax 250 plate reader (Molecular Devices) and the concentration of IL-6 for each sample calculated from the standard curve.
Samples for use in the ELISA were prepared by seeding of cells in 96 well plates with or without chemotherapy as described previously. As in the previous experiments chemotherapy was added 24 hours after cell seeding. For cell lysis experiments 300 μl of distilled water was added to each well and lysis of cells was confirmed by visual inspection. Media from these assays was removed at the appropriate time and stored at −20° C. until the ELISA was performed. The concentration of IL-6 for each cell line represents the mean value generated from three separate experiments. The results from chemotherapy effects on IL-6 production are representative of two or more experiments.

[6] = system: NO36 mesothelioma cell line; experiment: MTT assay, NO36; format: cell-based, human
Text: as §1, §2, §3

IL-6 [7] = details: mesothelioma cells, concentrations producing a 5-30% reduction in relative cell growth; reference 3; cited from earlier work

IC50 [1] [ng/mL] | IC50 [2] [ng/mL] | IC50 [3] [ng/mL] | Structure (SMILES) | shape of dose response curve [4] | surge in IL-6 production (IL-6 [5]) | IL-6 production compared to untreated cells (IL-6 [5]; concentrations below the IC50) | viability at 0.01 µg/mL ([6]; Homo sapiens, NO36 cells at 10 ng/ml) [%] | concentration at which cell death reaches a plateau ([6]; NO36 cells, MTT) | change in IL-6 concentration relative to untreated cells (IL-6 [7])
4.7 to 7.6 (≈ 5.82 to 9.41 nM) | 5.4 (≈ 6.68 nM) | 2 (≈ 2.48 nM) | CC(=O)O[C@@]12CO[C@@H]1C[C@H](O)[C@@]1(C)C(=O)[C@H](O)C3=C(C)[C@@H](OC(=O)[C@H](O)[C@@H](NC(=O)OC(C)(C)C)c4ccccc4)C[C@@](O)([C@@H](OC(=O)c4ccccc4)[C@H]21)C3(C)C [docetaxel, Docetaxel] | plateau effect is clear for all cell lines | a surge in IL-6 production was measured | did not effect IL-6 production | – | – | –
0.8 to 5 (≈ 3.04 to 19 nM) | 1.75 (≈ 6.65 nM) | 6.7 (≈ 25.5 nM) | Nc1ccn([C@@H]2O[C@H](CO)[C@@H](O)C2(F)F)c(=O)n1 [gemcitabine] | – | a surge in IL-6 production was measured | – | 50 | approximately 3 ng/ml | decrease in the IL-6 concentration by up to one half
